Source: the supplement of paper PMC9663587

Tests used:
Assay in all cases: GR value, 72 h; higher = faster growth (1 = untreated, <0 = killing);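 further: breast cancer and non-malignant breast epithelial lines, nine half-log doses, viable cells counted by Hoechst and LIVE/DEAD dye imaging versus time-zero plates and DMSO controls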
Neratinib/HKI272 = compound: CCOc1cc2ncc(C#N)c(Nc3ccc(OCc4ccccn4)c(Cl)c3)c2cc1NC(=O)/C=C/CN(C)C [Neratinib/HKI272]
[1] = compound: CCc1cnn2c(NCc3ccc[n+]([O-])c3)cc(N3CCCC[C@H]3CCO)nc12
LEE011/Ribociclib = compound: CN(C)C(=O)c1cc2cnc(Nc3ccc(N4CCNCC4)cn3)nc2n1C1CCCC1 [LEE011/Ribociclib]
THZ531 = compound: CN(C)C/C=C/C(=O)Nc1ccc(C(=O)N2CCC[C@@H](Nc3ncc(Cl)c(-c4c[nH]c5ccccc45)n3)C2)cc1 [THZ531]
THZ1 = compound: CN(C)C/C=C/C(=O)Nc1ccc(C(=O)Nc2cccc(Nc3ncc(Cl)c(-c4c[nH]c5ccccc45)n3)c2)cc1 [THZ1]
Flavopiridol = compound: CN1CC[C@H](c2c(O)cc(O)c3c(=O)cc(-c4ccccc4Cl)oc23)[C@H](O)C1 [Flavopiridol]

T47D
GR value (Neratinib/HKI272; 0.3162 µM): 0.584 GR
GR value (Neratinib/HKI272; 1 µM): 0.382 GR
GR value (Neratinib/HKI272; 3.162 µM): 0.215 GR
GR value ([1]; 0.0001 µM): 0.999 GR
GR value ([1]; 0.0003162 µM): 1.01 GR
GR value ([1]; 0.001 µM): 1.08 GR
GR value ([1]; 0.003162 µM): 1.12 GR
GR value ([1]; 0.01 µM): 1.05 GR
GR value ([1]; 0.03162 µM): -0.0667 GR
GR value ([1]; 0.1 µM): -0.128 GR
GR value ([1]; 0.3162 µM): -0.19 GR
GR value ([1]; 1 µM): -0.22 GR
GR value (LEE011/Ribociclib; 0.001 µM): 0.614 GR
GR value (LEE011/Ribociclib; 0.003162 µM): 0.624 GR
GR value (LEE011/Ribociclib; 0.01 µM): 0.407 GR
GR value (LEE011/Ribociclib; 0.03162 µM): 0.413 GR
GR value (LEE011/Ribociclib; 0.1 µM): 0.297 GR
GR value (LEE011/Ribociclib; 0.3162 µM): 0.244 GR
GR value (LEE011/Ribociclib; 1 µM): 0.174 GR
GR value (LEE011/Ribociclib; 3.162 µM): 0.151 GR
GR value (LEE011/Ribociclib; 10 µM): 0.163 GR
GR value (THZ531; 0.0001 µM): 1.06 GR
GR value (THZ531; 0.0003162 µM): 0.984 GR
GR value (THZ531; 0.001 µM): 1.04 GR
GR value (THZ531; 0.003162 µM): 0.925 GR
GR value (THZ531; 0.01 µM): 1.15 GR
GR value (THZ531; 0.03162 µM): 1.06 GR
GR value (THZ531; 0.1 µM): 0.675 GR
GR value (THZ531; 0.3162 µM): -0.121 GR
GR value (THZ531; 1 µM): -0.102 GR
GR value (THZ1; 0.0001 µM): 0.967 GR
GR value (THZ1; 0.0003162 µM): 1.08 GR
GR value (THZ1; 0.001 µM): 0.922 GR
GR value (THZ1; 0.003162 µM): 1.02 GR
GR value (THZ1; 0.01 µM): 0.841 GR
GR value (THZ1; 0.03162 µM): 0.474 GR
GR value (THZ1; 0.1 µM): -0.116 GR
GR value (THZ1; 0.3162 µM): -0.142 GR
GR value (THZ1; 1 µM): -0.269 GR
GR value (Flavopiridol; 0.0001 µM): 0.983 GR
GR value (Flavopiridol; 0.0003162 µM): 1.05 GR
GR value (Flavopiridol; 0.001 µM): 0.945 GR
GR value (Flavopiridol; 0.003162 µM): 1.05 GR
GR value (Flavopiridol; 0.01 µM): 0.897 GR
GR value (Flavopiridol; 0.03162 µM): 0.808 GR
GR value (Flavopiridol; 0.1 µM): 0.548 GR
GR value (Flavopiridol; 0.3162 µM): 0.148 GR
GR value (Flavopiridol; 1 µM): -0.153 GR
